Assay results published in US12018327B2, “Methods and compositions relating to epoxide hydrolase genes” (The Regents of the University of California, priority 2018, dated 2024).

Tests used:
autologous T cells = assay: Co-culture of 12,13 DiHOME treated DCs with autologous T cells, T cell subsets by flow cytometry; format: cell-based, human
Protocol: Co-culture of human DCs and T cells in the presence of 12,13 DiHOME was performed as previously described. In brief, DCs were isolated from the PBMCs of two healthy human donors and treated for five days with 130 μM 12,13 DiHOME solubilized in 0.2% DMSO or vehicle (0.2% DMSO) in the presence of 20 ng mL^−1 IL-4 (R&D Systems, Minneapolis, MN) and 10 ng mL^−1 GM-CSF (R&D Systems, Minneapolis, MN). Fresh treatment media was added every 48 hrs throughout the course of the study. Eighteen hours prior to co-culture, DCs were stimulated with 10 ng mL^−1 TNFα, IL1β, and IL-6 (Peprotech, Rocky Hill, NJ) and 1 mM prostaglandin E2 (Stemcell Technologies, Cambridge, MA). DCs were subsequently washed and co-cultured with autologous T cells in the presence of 10 ng mL^−1 anti-CD28 and anti-CD49d (BD Bioscience, San Jose, CA).
After five days of co-culture, T cell subsets were analyzed by flow cytometry. To assess cytokine secretion, cells were stimulated for 16 hrs with Phorbol Myristate Acetate-Ionomycin (ACROS, Morris Planes, NJ) and GolgiPlug (Gplug; BD Biosciences, San Jose, CA). Flow cytometry data was collected on a BD LSR II flow cytometer. Helper T cell subsets were defined as follows: Th1 CD3+CD4+IFNγ+; Th2 CD3+CD4+IL-4+; Th17 CD3+CD4+IL-17+, Treg CD3+CD4+CD25+FoxP3+. The human T cell gating strategy can be found in FIG. 4D.

human DCs = assay: IL-10 secretion from human DCs, cytometric bead array; format: cell-based
Protocol: IL-10 secretion was measured using a cytometric bead array (BD Biosciences, San Jose, CA). Human DCs were isolated from the peripheral blood mononuclear cells (PBMCs) of two healthy human donors as previously described and treated with increasing concentrations of 12,13 DiHOME (Cayman Chemical, Ann Arbor, MI) solubilized in 0.2% dimethylsulfoxide (DMSO). […] IL-10 concentrations were determined according to the manufacturer's instructions.

[1] = Quantification of 12,13 DiHOME in lungs and plasma by LC-MS after peritoneal injection; format: in vivo, mice; conditions: 30 mg kg^−1 peritoneal, vs vehicle
Protocol: For quantification of 12,13 DiHOME in the lungs and plasma, six-week-old female C57B6 mice were purchased from Jackson Laboratories (Sacramento, CA) and treated with 30 mg kg^−1 12,13 DiHOME solubilized in 10% DMSO or vehicle (10% DMSO) by peritoneal injection. Three hours after a single injection mice were sacrificed, and lung tissue and plasma were collected and frozen immediately in liquid nitrogen. 12,13 DiHOME was extracted from tissue and plasma using an established solid phase extraction protocol. In brief, flash frozen tissue was massed and added to a Lysing Matrix E Tube (MP Biomedicals, Santa Ana, CA) containing 1 mL of methanol, 10 μL 0.2 mg mL^−1 BHT/EDTA, and 1.25 ng 12,13 DiHOME-D4 (Cayman Chemical, Ann Arbor, MI) then homogenized as described above. Tissue samples were spun for 10 minutes at 2125×g, and supernatant was transferred to a falcon tube containing 19 mL deionized water to generate a 5% methanol solution. Plasma samples were thawed on ice, and 10 μL 0.2 mg mL^−1 BHT/EDTA and 1.25 ng 12,13 DiHOME-D4 were added to 250 μL of thawed plasma. All samples were extracted using a Waters Oasis HLB Cartridges (60 mg of sorbent, […] particle size; Waters, Milford, MA) as previously described. […]

SMILES: CCCCCC(O)C(O)C/C=C\CCCCCCCC(=O)O (centres unmarked) [12,13 DiHOME]
- cell viability (autologous T cells; DC and T cell co-culture): without decreasing
- distribution of helper T cells (autologous T cells; DCs treated with 130 μM): significant shift
- frequency of Tregs (CD3+CD4+CD25+FoxP3+) (autologous T cells; DCs treated with 130 μM): specific decrease
- IL-10 secretion 24 hours after treatment (human DCs; 130 μM, 24 hr): significant decreases
- IL-10 secretion 48 hours after treatment (human DCs; 130 μM, 48 hr): significant decreases
- IL-10 secretion from human DCs (human DCs; 75, 130, 200 μM, supernatant after 24 hours): dose-dependent decrease
- concentration of 12,13 DiHOME in the lungs ([1]; 3 hours post-delivery): significantly increased
- concentration of 12,13 DiHOME in the plasma ([1]; three hours after injection): significantly increased
